# Test results reported in patent US7816134B2, “Method of extensive culture of antigen-specific cytotoxic T cells” (Takara Bio Inc., priority 2000, dated 2010).
# Like-named read-outs stand apart in the source and are kept apart here.
# Experiments:
# [1] = tested on: anti-influenza virus memory CTLs (FluMPA2.1); type: cell-based, human
# [2] = tested on: HLA-A2.1-having EBV transformed B-cells (221A2.1); assay: Specific cytotoxic activity of MAGE3-specific CTLs after expansion; type: cell-based, human; conditions: for Cytotoxic Activity (%): sample induction +, expansion +
# Description: (§1) CTLs prepared in item (1) of Example 2-1 were washed with 5HRPMI, and then made into a suspension having a concentration of 5×10^4 cells/ml. On the other hand, allogenic PBMCs not having HLA-A24 and HLA-A2.1 which were collected in the same manner as in item (1) of Example 1-1 were subjected to X-ray irradiation (3300R), and the cells were washed with the medium and then made into a suspension having a concentration of 5×10^6 cells/ml. These CTLs (2.5×10^4 cells) and allogenic PBMCs (1.25×10^7 cells) were suspended in 10 ml of 5HRPMI, and anti-CD3 antibody (manufactured by Janssen-Kyowa) was further added thereto so as to give a final concentration of 50 ng/ml. The mixture was placed into a flask of 12.5 cm^2 (manufactured by Falcon), and the cells were cultured in a wet-type CO2 incubator at 37° C. for 14 days. […] The expansion ratio (× times ratio) was calculated by dividing the cell count after the expansion by the cell count before the expansion.
# [3] = tested on: anti-tumor-associated antigen(MAGE3)-specific CTLs; assay: Expansion ratio of MAGE3-specific CTLs; type: cell-based, human; conditions: sample 10 μg/ml: induction +, 14 days
# Description: as §1
# [4] = tested on: HLA-A2.1-having EBV transformed B-cells (221A2.1); conditions: for Cytotoxic Activity (%) E/T Ratio 3 / Cytotoxic Activity (%) E/T Ratio 10 / Cytotoxic Activity (%) E/T Ratio 1 / Cytotoxic Activity (%) E/T Ratio 2.5 / Cytotoxic Activity (%) E/T Ratio 5: FluMPA2.1
# [5] = tested on: HLA-A2.1-having EBV transformed B-cells (221A2.1); conditions: FluMPA2.1
# [6] = tested on: HLA-A2.1-having EBV transformed B-cells (221A2.1); assay: Cytotoxic activity of anti-tumor-associated antigen(MAGE3)-specific CTLs on the thirty-fifth day after the initiation of induction; conditions: 10 μg/ml
# [7] = Example 2-4, sample 10 μg/ml during CTL induction +, during expansion +
# [8] = Example 2-6, sample during CTL induction −, during expansion + (10 μg/ml)
# [9] = Example 1-3, sample 10 μg/ml during CTL induction +, during culture with IL-2 +, peptide addition +
# [10] = Example 1-3, sample 10 μg/ml during CTL induction +, during culture with IL-2 +, peptide addition −
# [11] = Example 1-5, sample during CTL induction −, during culture with IL-2 + (10 μg/ml), peptide addition +
# [12] = Example 1-5, sample during CTL induction −, during culture with IL-2 + (10 μg/ml), peptide addition −
# [13] = sample 10 μg/ml during CTL induction and during continuous culture, 10 to 14 days
# [14] = sample 10 μg/ml only during continuous culture
# [15] = Example 2-4, sample 10 μg/ml during CTL induction +, during expansion +, peptide addition +
# [16] = Example 2-4, sample 10 μg/ml during CTL induction +, during expansion +, peptide addition −
# [17] = Example 2-6, sample during CTL induction −, during expansion + (10 μg/ml), peptide addition +
# [18] = Example 2-6, sample during CTL induction −, during expansion + (10 μg/ml), peptide addition −
# [19] = Example 2-7, sample 10 μg/ml during CTL induction +, during expansion +, peptide addition +
# [20] = Example 2-7, sample 10 μg/ml during CTL induction +, during expansion +, peptide addition −
# [21] = Example 2-7, sample 10 μg/ml during CTL induction +, during expansion −, peptide addition +
# [22] = Example 2-7, sample 10 μg/ml during CTL induction +, during expansion −, peptide addition −
# [23] = Example 1-4, sample 10 μg/ml during CTL induction +, during culture with IL-2 +, peptide addition +
# [24] = Example 1-4, sample 10 μg/ml during CTL induction +, during culture with IL-2 +, peptide addition −
substance,measurement,setting,value
"Ardeparin sodium [L. M. W. Heparin, reference compound]",Expansion Ratio,[1]; [7],× 240
same,Expansion Ratio,[1]; [8],× 353
same,Expansion Ratio,"[1]; Example 2-7, sample 10 μg/ml during CTL induction +, during expansion +",× 243
same,Expansion Ratio,"[1]; Example 2-7, sample 10 μg/ml during CTL induction +, during expansion −",× 253
same,cytotoxic activity after expansion for 14 days (in words),"[2]; MAGE3-specific CTLs, sample 10 μg/ml during CTL induction and during expansion","specific, high cytotoxic activity"
same,Cytotoxic Activity (%),"[2]; peptide addition +, E/T ratio 3",65.3%
same,Cytotoxic Activity (%),"[2]; peptide addition +, E/T ratio 9",104.8%
same,Cytotoxic Activity (%),"[2]; peptide addition −, E/T ratio 3",2.6%
same,Cytotoxic Activity (%),"[2]; peptide addition −, E/T ratio 9",3.7%
same,Expansion Ratio,[3],× 433
same,Cytotoxic Activity (%) E/T Ratio 3,[4]; [9],49.0%
same,Cytotoxic Activity (%) E/T Ratio 10,[4]; [9],71.7%
same,Cytotoxic Activity (%) E/T Ratio 3,[4]; [10],11.7%
same,Cytotoxic Activity (%) E/T Ratio 10,[4]; [10],14.2%
same,Cytotoxic Activity (%) E/T Ratio 10,[4]; [11],18.3%
same,Cytotoxic Activity (%) E/T Ratio 10,[4]; [12],0%
same,cytotoxic activity after continuous culture (in words),[4]; [13],continuous culture of CTLs having an antigen-specific cytotoxic activity can be carried out
same,cytotoxic activity after continuous culture (in words),[4]; [14],maintaining an antigen-specific cytotoxic activity
same,Cytotoxic Activity (%) E/T Ratio 3,[5]; [15],56.4%
same,Cytotoxic Activity (%) E/T Ratio 10,[5]; [15],92.9%
same,Cytotoxic Activity (%) E/T Ratio 3,[5]; [16],5.2%
same,Cytotoxic Activity (%) E/T Ratio 10,[5]; [16],19.6%
same,Cytotoxic Activity (%) E/T Ratio 1,[5]; [17],11.3%
same,Cytotoxic Activity (%) E/T Ratio 3,[5]; [17],22.2%
same,Cytotoxic Activity (%) E/T Ratio 10,[5]; [17],43.9%
same,Cytotoxic Activity (%) E/T Ratio 30,[5]; [17],71.2%
same,Cytotoxic Activity (%) E/T Ratio 1,[5]; [18],1.4%
same,Cytotoxic Activity (%) E/T Ratio 3,[5]; [18],0%
same,Cytotoxic Activity (%) E/T Ratio 10,[5]; [18],0.6%
same,Cytotoxic Activity (%) E/T Ratio 30,[5]; [18],2.5%
same,Cytotoxic Activity (%) E/T Ratio 1,[5]; [19],16.3%
same,Cytotoxic Activity (%) E/T Ratio 3,[5]; [19],22.7%
same,Cytotoxic Activity (%) E/T Ratio 10,[5]; [19],43.9%
same,Cytotoxic Activity (%) E/T Ratio 30,[5]; [19],72.8%
same,Cytotoxic Activity (%) E/T Ratio 1,[5]; [20],5.6%
same,Cytotoxic Activity (%) E/T Ratio 3,[5]; [20],2.5%
same,Cytotoxic Activity (%) E/T Ratio 10,[5]; [20],1.1%
same,Cytotoxic Activity (%) E/T Ratio 30,[5]; [20],0.9%
same,Cytotoxic Activity (%) E/T Ratio 1,[5]; [21],12.5%
same,Cytotoxic Activity (%) E/T Ratio 3,[5]; [21],26.9%
same,Cytotoxic Activity (%) E/T Ratio 10,[5]; [21],57.8%
same,Cytotoxic Activity (%) E/T Ratio 30,[5]; [21],83.7%
same,Cytotoxic Activity (%) E/T Ratio 1,[5]; [22],5.2%
same,Cytotoxic Activity (%) E/T Ratio 3,[5]; [22],4.5%
same,Cytotoxic Activity (%) E/T Ratio 10,[5]; [22],6.6%
same,Cytotoxic Activity (%) E/T Ratio 30,[5]; [22],7.0%
same,difference in the cytotoxic activity by the presence or absence of the addition during the induction,[6],almost no difference
non-swellable alginic acid,Expansion Ratio,[1]; [7],× 220
same,Expansion Ratio,[1]; [8],× 335
same,Cytotoxic Activity (%) E/T Ratio 1,[4]; [9],28.1%
same,Cytotoxic Activity (%) E/T Ratio 3,[4]; [9],52.7%
same,Cytotoxic Activity (%) E/T Ratio 10,[4]; [9],77.1%
same,Cytotoxic Activity (%) E/T Ratio 1,[4]; [10],12.9%
same,Cytotoxic Activity (%) E/T Ratio 3,[4]; [10],24.8%
same,Cytotoxic Activity (%) E/T Ratio 10,[4]; [10],14.0%
same,Cytotoxic Activity (%) E/T Ratio 1,[4]; [11],9.5%
same,Cytotoxic Activity (%) E/T Ratio 3,[4]; [11],13.8%
same,Cytotoxic Activity (%) E/T Ratio 10,[4]; [11],24.9%
same,Cytotoxic Activity (%) E/T Ratio 1,[4]; [12],3.9%
same,Cytotoxic Activity (%) E/T Ratio 3,[4]; [12],4.6%
same,Cytotoxic Activity (%) E/T Ratio 10,[4]; [12],6.1%
same,cytotoxic activity after continuous culture (in words),[4]; [14],maintaining an antigen-specific cytotoxic activity
same,Cytotoxic Activity (%) E/T Ratio 3,[5]; [15],63.5%
same,Cytotoxic Activity (%) E/T Ratio 10,[5]; [15],81.4%
same,Cytotoxic Activity (%) E/T Ratio 3,[5]; [16],26.2%
same,Cytotoxic Activity (%) E/T Ratio 10,[5]; [16],26.8%
same,Cytotoxic Activity (%) E/T Ratio 1,[5]; [17],13.5%
same,Cytotoxic Activity (%) E/T Ratio 3,[5]; [17],24.1%
same,Cytotoxic Activity (%) E/T Ratio 10,[5]; [17],50.4%
same,Cytotoxic Activity (%) E/T Ratio 30,[5]; [17],76.0%
same,Cytotoxic Activity (%) E/T Ratio 1,[5]; [18],0.5%
same,Cytotoxic Activity (%) E/T Ratio 3,[5]; [18],5.2%
same,Cytotoxic Activity (%) E/T Ratio 10,[5]; [18],6.5%
same,Cytotoxic Activity (%) E/T Ratio 30,[5]; [18],14.4%
sodium chondroitin sulfate B,Expansion Ratio,[1]; [7],× 178
same,Expansion Ratio,[1]; [8],× 383
same,Cytotoxic Activity (%) E/T Ratio 2.5,[4]; [23],28.1%
same,Cytotoxic Activity (%) E/T Ratio 5,[4]; [23],38.1%
same,Cytotoxic Activity (%) E/T Ratio 10,[4]; [23],60.7%
same,Cytotoxic Activity (%) E/T Ratio 2.5,[4]; [24],0%
same,Cytotoxic Activity (%) E/T Ratio 5,[4]; [24],0%
same,Cytotoxic Activity (%) E/T Ratio 10,[4]; [24],0.8%
same,Cytotoxic Activity (%) E/T Ratio 10,[4]; [11],24.0%
same,Cytotoxic Activity (%) E/T Ratio 10,[4]; [12],4.6%
same,cytotoxic activity after continuous culture (in words),[4]; [13],effects for maintaining cytotoxic activity
same,cytotoxic activity after continuous culture (in words),[4]; [14],maintaining an antigen-specific cytotoxic activity
same,Cytotoxic Activity (%) E/T Ratio 3,[5]; [15],57.8%
same,Cytotoxic Activity (%) E/T Ratio 10,[5]; [15],98.2%
same,Cytotoxic Activity (%) E/T Ratio 3,[5]; [16],1.0%
same,Cytotoxic Activity (%) E/T Ratio 10,[5]; [16],10.7%
same,Cytotoxic Activity (%) E/T Ratio 1,[5]; [17],15.2%
same,Cytotoxic Activity (%) E/T Ratio 3,[5]; [17],27.2%
same,Cytotoxic Activity (%) E/T Ratio 10,[5]; [17],48.1%
same,Cytotoxic Activity (%) E/T Ratio 30,[5]; [17],76.2%
same,Cytotoxic Activity (%) E/T Ratio 1,[5]; [18],3.9%
same,Cytotoxic Activity (%) E/T Ratio 3,[5]; [18],4.4%
same,Cytotoxic Activity (%) E/T Ratio 10,[5]; [18],8.3%
same,Cytotoxic Activity (%) E/T Ratio 30,[5]; [18],11.8%
pectic acid,Expansion Ratio,[1]; [7],× 160
same,Expansion Ratio,[1]; [8],× 350
same,Cytotoxic Activity (%) E/T Ratio 2.5,[4]; [23],32.0%
same,Cytotoxic Activity (%) E/T Ratio 5,[4]; [23],49.4%
same,Cytotoxic Activity (%) E/T Ratio 2.5,[4]; [24],3.4%
same,Cytotoxic Activity (%) E/T Ratio 5,[4]; [24],5.5%
same,Cytotoxic Activity (%) E/T Ratio 10,[4]; [11],16.5%
same,Cytotoxic Activity (%) E/T Ratio 10,[4]; [12],0%
same,cytotoxic activity after continuous culture (in words),[4]; [13],effects for maintaining cytotoxic activity
same,cytotoxic activity after continuous culture (in words),[4]; [14],maintaining an antigen-specific cytotoxic activity
same,Cytotoxic Activity (%) E/T Ratio 3,[5]; [15],47.0%
same,Cytotoxic Activity (%) E/T Ratio 10,[5]; [15],69.8%
same,Cytotoxic Activity (%) E/T Ratio 3,[5]; [16],11.6%
same,Cytotoxic Activity (%) E/T Ratio 10,[5]; [16],7.3%
same,Cytotoxic Activity (%) E/T Ratio 1,[5]; [17],18.2%
same,Cytotoxic Activity (%) E/T Ratio 3,[5]; [17],33.3%
same,Cytotoxic Activity (%) E/T Ratio 10,[5]; [17],64.2%
same,Cytotoxic Activity (%) E/T Ratio 30,[5]; [17],87.8%
same,Cytotoxic Activity (%) E/T Ratio 1,[5]; [18],2.3%
same,Cytotoxic Activity (%) E/T Ratio 3,[5]; [18],4.1%
same,Cytotoxic Activity (%) E/T Ratio 10,[5]; [18],8.2%
same,Cytotoxic Activity (%) E/T Ratio 30,[5]; [18],15.9%
